{"source": "patent US11986482B2", "about": "“Method of promoting antitumor or anti-cancer immunity” (City University of Hong Kong, priority 2021, dated 2024)", "system": "PD-L1", "assay": "Western blot of PD-L1 in exosomes of 4T1 cells", "type": "cell-based, mouse", "conditions": "1 μM", "procedure": "The current PD-L1 and PD1 therapies apply PD-L1 or PD1 monoclonal antibodies to block the PD-L1/PD1 signaling, which results in cytotoxic T cells recognizing and killing the tumor cells. […] First, flow cytometry-based quantification of plasma membrane levels of PD-L1 in 4T1 cells treated with or without 6J1 (1 μM) for 24 h. 4T1 cells are treated with or without 6J1 (1 μM) for 24 h. The supernatant is collected, and the concentration of extracellular vesicle is determined using a Nanosight nanoparticle analyzer in FIG. 8b. The exosomes are also collected and subjected to western blot analysis of the EVs marker and PD-L1 in FIG. 8c.\nTherefore, it is possible that the increased exosomal PD-L1 secretion induced by 6J1 may still suppress the tumor-infiltrating T cell cytotoxicity in vivo, even though 6J1 reduces the cell surface expression level of PD-L1 on the tumor cells. To evaluate the role of exosomal PD-L1 in the tumor microenvironment and tumor progression in mice, inventors knock out Rab27a in 4T1 cells to inhibit the secretion of exosomes. 4T1-shNC or 4T1-shRab27A cells are treated with or without 6J1 (1 μM). The supernatant is collected, and the concentration of extracellular vesicle is determined using a Nanosight nanoparticle analyzer. […] Inventors analyze the plasma membrane levels of PD-L1 in 4T1-shNC or 4T1-shRab27A cells treated with or without 6J1 (1 μM). […]"}
{"smiles": "OCCOCCN(c1ccccc1)c1nc(N/N=C/c2cccc(I)c2)nc(N2CCOCC2)n1", "note": "[Compound 6J1]", "values": [{"measurement": "6J1-induced exosomal PD-L1 levels", "setting": "4T1-shRab27A cells", "value": "significantly inhibits"}, {"measurement": "secretion of PD-L1 in exosomes", "setting": "4T1 cells, 24 h", "value": "induces the secretion of PD-L1 in exosomes"}]}
